Measured values published in PubChem BioAssay AID720642 (The Scripps Research Institute Molecular Screening Center, 2013).
Active and inactive are the calls of the source.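 How the source made its calls: active means EC50 activation potency at or below 10 µM in this mu opioid counterscreen; inactive means EC50 above 10 µM or never reaching half activation.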

Molecular target: Mu-type opioid receptor (Homo sapiens) (UniProt P35372)
Assay: OPRM1 agonists via beta-arrestin recruitment, late-stage follow-up, counter-screen for mouse HTR2A agonist project, cell-based, luminescence, dose response, powder samples (AID 720642)
Details: U2OS OPRM1 beta-arrestin complementation

Sequence of Mu-type opioid receptor (Homo sapiens) (P35372 whole entry, looked up): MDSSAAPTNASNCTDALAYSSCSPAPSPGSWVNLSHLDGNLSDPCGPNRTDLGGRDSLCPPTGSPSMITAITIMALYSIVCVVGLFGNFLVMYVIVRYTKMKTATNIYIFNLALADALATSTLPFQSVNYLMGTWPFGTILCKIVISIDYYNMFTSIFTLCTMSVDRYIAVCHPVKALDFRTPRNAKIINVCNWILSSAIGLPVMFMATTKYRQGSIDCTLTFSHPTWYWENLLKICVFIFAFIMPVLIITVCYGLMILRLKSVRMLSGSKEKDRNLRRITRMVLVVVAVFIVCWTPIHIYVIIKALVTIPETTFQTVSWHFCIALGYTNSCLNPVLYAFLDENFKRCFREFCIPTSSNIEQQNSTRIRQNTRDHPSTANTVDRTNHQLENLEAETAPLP

Row | Compound | EC50
1 | CC(=O)N1CCC(N2CCN(c3ccccc3F)CC2)CC1 | > 92.5 µM (inactive)
2 | Clc1ccccc1CN1CCN(c2ncccn2)CC1 | > 92.5 µM (inactive)
3 | CCOc1cc(CN2CCN(C(=O)c3ccco3)CC2)ccc1OC | > 92.5 µM (inactive)
4 | Cc1ccsc1CN1CCN(c2ccccn2)CC1 | > 92.5 µM (inactive)
5 | c1ccc(CN2CCN(c3ncccn3)CC2)cc1 | > 92.5 µM (inactive)
6 | Clc1ccccc1CN1CCN(c2ccccc2)CC1 | > 92.5 µM (inactive)
7 | CCOC(=O)C1CCN(Cc2cccc(Oc3ccc(Cl)cc3)c2)CC1 | > 92.5 µM (inactive)
8 | COc1cc(Br)cc(CN2CCN(c3ncccn3)CC2)c1O | > 92.5 µM (inactive)
9 | COc1ccccc1C(=O)NCCN1CCN(c2ccccc2)CC1 | > 92.5 µM (inactive)
10 | Cc1cccc(CN2CCN(c3ncccn3)CC2)c1 | > 92.5 µM (inactive)
11 | COc1cccc(OCC(O)CN2CCN(c3ccccn3)CC2)c1 (centres undefined) | > 92.5 µM (inactive)
12 | CCOc1ccc(NC(=O)CCN2CCN(c3ccccc3F)CC2)cc1 | > 92.5 µM (inactive)
13 | C=CCN1CCc2nc(N)sc2CC1 | > 92.5 µM (inactive)
14 | CC(COc1ccccc1)N1CCC(CO)(Cc2ccccc2)CC1 (centres undefined) | > 92.5 µM (inactive)
15 | Cc1ccc(CN2CCN(c3ncccn3)CC2)o1 | > 92.5 µM (inactive)
16 | COc1cc(CN2CCN(c3ncccn3)CC2)cc(OC)c1 | > 92.5 µM (inactive)
17 | O=C(CN1CCN(c2ccccn2)CC1)Nc1ccc(Oc2ccccc2)cc1 | > 92.5 µM (inactive)
18 | CC(CCc1ccc(O)cc1)NCCc1ccc(O)c(O)c1 (centres undefined) | > 92.5 µM (inactive)
19 | Fc1ccc(F)c(CN2CCN(c3ncccn3)CC2)c1 | > 92.5 µM (inactive)
20 | OC(COc1ccc2cc(Br)ccc2c1)CN1CCN(c2ccccn2)CC1 (centres undefined) | > 92.5 µM (inactive)
21 | CCCN1CCC[C@H](c2cccc(O)c2)C1 | > 92.5 µM (inactive)
22 | CCn1c(=O)cc(SCC(=O)NCCCN2CCN(c3ccccc3F)CC2)c2ccccc21 | > 92.5 µM (inactive)
23 | CC(C)C[C@H]1C(=O)N2CCC[C@H]2[C@]2(O)O[C@](NC(=O)[C@@H]3C=C4c5cccc6[nH]c(Br)c(c56)CC4N(C)C3)(C(C)C)C(=O)N12 (some centres undefined) | > 92.5 µM (inactive)
24 | Brc1cccc(CN2CCN(c3ncccn3)CC2)c1 | > 92.5 µM (inactive)
25 | COc1ccc(CN2CCN(c3ncccn3)CC2)c(OC)c1 | > 92.5 µM (inactive)
26 | COc1ccc(CN2CCN(C(=O)c3ccco3)CC2)cc1OCc1ccccc1 | > 92.5 µM (inactive)
27 | COc1ccc(CN2CCN(c3ncccn3)CC2)c(C)c1C | > 92.5 µM (inactive)

Row | Compound | EC50
28 | CCc1ccc(CN2CCN(C(=O)c3ccco3)CC2)cc1 | > 92.5 µM (inactive)
29 | NC[C@@H]1O[C@H](C23CC4CC(CC(C4)C2)C3)Cc2c1ccc(O)c2O | > 92.5 µM (inactive)
30 | c1ccc(COc2ccc(CN3CCN(c4ccccn4)CC3)cc2)cc1 | > 92.5 µM (inactive)
31 | Oc1ccc(CN2CCN(c3ncccn3)CC2)cc1 | > 92.5 µM (inactive)
32 | Cc1cccc(CN2CCN(c3ccccn3)CC2)c1 | > 92.5 µM (inactive)
33 | Clc1ccc(CN2CCN(c3ncccn3)CC2)cc1 | > 92.5 µM (inactive)
34 | CN(c1ccc(C(=O)N2CCN(Cc3ccccc3)CC2)cc1)S(=O)(=O)c1ccc(Cl)cc1 | > 92.5 µM (inactive)
35 | COc1ccc(CC2(CO)CCN(Cc3cc4ccccc4o3)CC2)cc1 | > 92.5 µM (inactive)
36 | Brc1ccc(CN2CCN(c3ccccn3)CC2)s1 | > 92.5 µM (inactive)
37 | O=C(c1ccco1)N1CCN(Cc2ccc(Cl)cc2)CC1 | > 92.5 µM (inactive)
38 | Fc1ccccc1CN1CCN(c2ncccn2)CC1 | > 92.5 µM (inactive)
39 | CCCN(CCC)C1CCc2cccc(O)c2C1 (centres undefined) | > 92.5 µM (inactive)
40 | NC1CCc2cc(O)c(O)cc2C1 (centres undefined) | > 92.5 µM (inactive)
41 | Cn1cc(C(F)(F)F)nc1-c1ccc(OCC(O)CNCCOc2ccc(O)c(C(N)=O)c2)cc1 (centres undefined) | > 92.5 µM (inactive)
42 | Cc1ccc(CN2CCN(c3ncccn3)CC2)c(C)c1 | > 92.5 µM (inactive)
43 | CC1(C)C(C=C(Cl)Cl)C1C(=O)N1CCN(Cc2ccccc2)CC1 (centres undefined) | > 92.5 µM (inactive)
44 | CCCN1C[C@H](CSC)C[C@@H]2c3cccc4[nH]cc(c34)C[C@H]21 | > 92.5 µM (inactive)
45 | CCOC(=O)N1CCN(Cc2ccc(OCC(O)CN3CCCCC3)cc2)CC1 (centres undefined) | > 92.5 µM (inactive)
46 | Cc1ccc(CN2CCN(c3ccccn3)CC2)s1 | > 92.5 µM (inactive)
47 | COc1ccc(CN2CCN(c3ccccn3)CC2)c(OC)c1 | > 92.5 µM (inactive)
48 | COc1cccc(-n2cc(CNCc3cn(C)nc3-c3ccccc3F)cn2)c1 | > 92.5 µM (inactive)
49 | OCC1(Cc2cccc(C(F)(F)F)c2)CCN(Cc2cc3ccccc3o2)CC1 | > 92.5 µM (inactive)
50 | Fc1cccc(CN2CCN(c3ncccn3)CC2)c1 | > 92.5 µM (inactive)
51 | CC1CC(C)CN(CCOc2cccc(Cl)c2Cl)C1 (centres undefined) | > 92.5 µM (inactive)
52 | Clc1ccc(CN2CCN(c3ncccn3)CC2)cc1Cl | > 92.5 µM (inactive)
53 | CC(=O)N1CCc2cc(C(=O)CN3CCN(c4cccc(Cl)c4)CC3)ccc21 | > 92.5 µM (inactive)
54 | c1ccc(N2CCN(Cc3ccsc3)CC2)nc1 | > 92.5 µM (inactive)
